Source: patent US20220017541A1, “INHIBITORS OF ARGINASE” (Black Belt Tx Ltd, priority 2018, published 2022)

Assays:
recombinant human ARG2 = target: T1, recombinant human ARG2 (Homo sapiens, UniProt P78540); test: Arginase enzymatic assay in vitro, recombinant human ARG2 (colorimetric urea detection); assay type: biochemical; settings: recombinant human arginase 2; read-out: IC50 Inh rhARG2
T1 construct: purchased BPS Bioscience 71659
T1 sequence (P78540 23-354): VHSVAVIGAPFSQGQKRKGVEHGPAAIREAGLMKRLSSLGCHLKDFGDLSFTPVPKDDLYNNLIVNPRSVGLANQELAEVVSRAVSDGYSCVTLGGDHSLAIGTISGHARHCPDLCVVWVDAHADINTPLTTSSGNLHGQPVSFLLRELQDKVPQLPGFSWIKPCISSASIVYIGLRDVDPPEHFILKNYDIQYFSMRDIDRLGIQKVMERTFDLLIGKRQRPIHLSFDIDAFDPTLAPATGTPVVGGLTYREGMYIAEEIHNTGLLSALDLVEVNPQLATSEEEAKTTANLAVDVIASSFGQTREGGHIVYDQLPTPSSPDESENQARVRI
Description: (§1) Arginase catalyzes the hydrolysis of L-arginine into L-ornithine and urea. Urea amount produced by this reaction can be detected using a colorimetric assay and used as an indirect measurement of arginase activity. An adapted protocol from (Baggio, R., et al., J Pharmacol Exp Ther, 1999. 290(3): p. 1409-16) was used for the testing the ability of exemplary compounds of the invention to inhibit arginase enzymes from a variety of sources including recombinant human ARG1 and 2, lysates of human red blood cells (RBC) and intact murine macrophages, as described below.
(§2) Compounds of the invention were prepared from powder as 10 mM stock solutions in DMSO and stored in presence of N2 neutral atmosphere at −80° C. For IC50 determination and just before the assay, exemplary compounds were successively diluted to get the following concentrations: 210, 70, 21, 7, 2.1, 0.7, 0.21, 0.07, 0.021, 0.007, 0.0021 and 0.0007 μM (i.e., final concentrations in the wells of 30, 10, 3, 1, 0.3, 0.1, 0.03, 0.01, 0.003, 0.001, 0.0003, 0.0001 μM).
(§3) Assays were run in clear flat bottom 96-well plates (Nunclon, Cat. No. #167008) adding in each well the following solutions in this order: (1) 10 μl of Tris-HCl solution supplemented with 0.1% bovine serum albumin (BSA) containing 1.563 μg/ml recombinant human ARG1 (R&D System, Cat. No. #5868-AR-010), (2) 30 μl of Tris-HCl buffer containing 10 mM MnCl2 and (3) 10 μL of a pre-dilution of each test article or DMSO (vehicle). Compounds were allowed to interact with the enzyme-cofactor complex pre-incubating the plate at 37° C. for 30 min. To start the reaction, 20 μl of 50 mM L-arginine (Sigma Aldrich Cat. #A5006-100G) were added to each well in exception of the blank reaction (see below). All reactions were allowed to happen for 1 h at 37° C. To detect the urea production, reactions were stopped by adding 200 μl of a mixture of reagent A (4 mM o-phthalaldehyde in 50 mM Boric Acid, 1 M Sulfuric Acid, 0.03% Brij-35 (w/v)) and reagent B (4 mM N-(1-naphthyl)ethylenediamine in 50 mM Boric Acid, 1 M Sulfuric Acid, 0.03% Brij-35 (w/v)) in equal proportion. Color product was developed for 1 h at room temperature (RT) protected from light and then absorbance at 520 nm was measured using a Multifunction Microplate Reader (Synergy 4, Bioteck). Blank reactions were carried out by adding the L-arginine substrate only after the addition of mixture A-B. All reactions were carried out in duplicates.
(§4) The inhibition of urea production was calculated subtracting the absorbance from the blank reaction (zero enzymatic urea production) to the absorbance from all reactions and it was expressed as the percentage of the absorbance from the reaction containing the test article with respect to the absorbance from vehicle reaction (maximum of urea production).
For testing inhibitory activity over recombinant human arginase II, 10 μl of Tris-HCl solution supplemented with 0.1% BSA containing 1.5 μg/ml recombinant human ARG2 (BPS Bioscience, Cat. No. #71659) was used instead of ARG1.

recombinant human ARG1 = target: T2, recombinant human ARG1 (Homo sapiens, UniProt P05089); test: Arginase enzymatic assay in vitro, recombinant human ARG1 (colorimetric urea detection); assay type: biochemical; settings: recombinant human arginase 1; read-out: IC50 Inh rhARG1
T2 construct: purchased R&D System 5868-AR-010
T2 sequence (P05089 1-322): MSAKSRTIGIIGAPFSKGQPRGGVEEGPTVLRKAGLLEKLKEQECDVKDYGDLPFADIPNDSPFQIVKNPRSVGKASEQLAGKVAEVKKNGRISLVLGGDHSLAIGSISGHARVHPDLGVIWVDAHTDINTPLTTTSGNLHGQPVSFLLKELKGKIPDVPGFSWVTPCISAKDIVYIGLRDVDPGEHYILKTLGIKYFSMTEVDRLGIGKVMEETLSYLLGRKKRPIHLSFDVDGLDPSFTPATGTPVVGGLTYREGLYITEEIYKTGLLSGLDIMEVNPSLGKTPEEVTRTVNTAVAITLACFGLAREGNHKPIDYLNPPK
Description: as §1, §2, §3, §4

Structure (SMILES) | IC50 (recombinant human ARG2) | IC50 (recombinant human ARG1)
NC(CCCCB(O)O)(C(=O)O)C1CCN(C2CCc3ccccc32)CC1 (single isomer, unassigned) [Compound 2, 2-amino-6-borono-2-(1-(2,3-dihydro-1H-inden-1-yl)piperidin-4-yl)hexanoic acid] | < 500 nM | < 500 nM
NC(CCCCB(O)O)(C(=O)O)C1CCN(C2CCc3ccccc32)CC1 (single isomer, unassigned) [Compound 3, 2-amino-6-borono-2-(1-(2,3-dihydro-1H-inden-1-yl)piperidin-4-yl)hexanoic acid] | > 5000 nM | > 5000 nM
NC(CCCCB(O)O)(C(=O)O)C1CCN(C2CCCc3ccccc32)CC1 (single isomer, unassigned) [Compound 4, 2-amino-6-borono-2-(1-(1,2,3,4-tetrahydronaphthalen-1-yl)piperidin-4-yl)hexanoic acid] | 500 to 5000 nM | < 500 nM
NC(CCCCB(O)O)(C(=O)O)C1CCN(C2CCCc3ccccc32)CC1 (single isomer, unassigned) [Compound 5, 2-amino-6-borono-2-(1-(1,2,3,4-tetrahydronaphthalen-1-yl)piperidin-4-yl)hexanoic acid] | < 500 nM | < 500 nM
NC(CCCCB(O)O)(C(=O)O)C1CCN(C2CCCc3ccccc32)CC1 (single isomer, unassigned) [Compound 6, 2-amino-6-borono-2-(1-(1,2,3,4-tetrahydronaphthalen-1-yl)piperidin-4-yl)hexanoic acid] | > 5000 nM | > 5000 nM
CC(c1ccccc1)N1CCC(C(N)(CCCCB(O)O)C(=O)O)CC1 (single isomer, unassigned) [Compound 10, 2-amino-6-borono-2-(1-(1-phenylethyl)piperidin-4-yl)hexanoic acid] | < 500 nM | < 500 nM
CC(c1ccccc1)N1CCC(C(N)(CCCCB(O)O)C(=O)O)CC1 (single isomer, unassigned) [Compound 11, 2-amino-6-borono-2-(1-(1-phenylethyl)piperidin-4-yl)hexanoic acid] | > 5000 nM | > 5000 nM
NC(CCCCB(O)O)(C(=O)O)C1CCN(C2CCc3cc(Cl)ccc32)CC1 (single isomer, unassigned) [Compound 14, 2-amino-6-borono-2-[1-(5-chloroindan-1-yl)-4-piperidyl]hexanoic acid] | < 500 nM | < 500 nM
NC(CCCCB(O)O)(C(=O)O)C1CCN(C2CCCc3cc(Cl)ccc32)CC1 (single isomer, unassigned) [Compound 17, 2-amino-6-borono-2-(1-(6-chloro-1,2,3,4-tetrahydronaphthalen-1-yl)piperidin-4-yl)hexanoic acid] | < 500 nM | < 500 nM
CNC(CCCCB(O)O)(C(=O)O)C1CCN(C2CCCc3ccccc32)CC1 (single isomer, unassigned) [Compound 79, 6-borono-2-(methylamino)-2-(1-(1,2,3,4-tetrahydronaphthalen-1-yl)piperidin-4-yl)hexanoic acid] | < 500 nM | < 500 nM
NC(CCCCB(O)O)(C(=O)O)C1CCN(C2CCCc3ccc(F)cc32)CC1 (single isomer, unassigned) [Compound 83, 2-amino-6-borono-2-(1-(7-fluoro-1,2,3,4-tetrahydronaphthalen-1-yl)piperidin-4-yl)hexanoic acid] | < 500 nM | < 500 nM
NC(CCCCB(O)O)(C(=O)O)C1CCN(C2CCCCc3ccccc32)CC1 (single isomer, unassigned) [Compound 84, 2-amino-6-borono-2-(1-(6,7,8,9-tetrahydro-5H-benzo[7]annulen-5-yl)piperidin-4-yl)hexanoic acid] | 500 to 5000 nM | < 500 nM
NC(CCCCB(O)O)(C(=O)O)C1CCN(C2CCc3cc(C(F)(F)F)ccc32)CC1 (single isomer, unassigned) [Compound 85, 2-amino-6-borono-2-[1-[5-(trifluoromethyl)indan-1-yl]-4-piperidyl]hexanoic acid] | < 500 nM | < 500 nM
NC(CCCCB(O)O)(C(=O)O)C1CCN(C2CCc3ccccc32)CC1 (centres unmarked) [Compound 1, 2-amino-6-borono-2-(1-(2,3-dihydro-1H-inden-1-yl)piperidin-4-yl)hexanoic acid] | 500 to 5000 nM | < 500 nM
CC(c1ccccc1)N1CCC(C(N)(CCCCB(O)O)C(=O)O)CC1 (centres unmarked) [Compound 9, 2-amino-6-borono-2-(1-(1-phenylethyl)piperidin-4-yl)hexanoic acid] | 500 to 5000 nM | < 500 nM
CC1(C)OB(CCCCC(N)(C(=O)O)C2CCN(C3CCCc4ccccc43)CC2)OC1(C)C (centres unmarked) [Compound 77, 2-amino-2-(1-(1,2,3,4-tetrahydronaphthalen-1-yl)piperidin-4-yl)-6-(4,4,5,5-tetramethyl-1,3,2-dioxaborolan-2-yl)hexanoic acid] | 500 to 5000 nM | < 500 nM
